# Test results as given in patent US11434227B2, “Broad spectrum antibacterial activity of novel bisbenzimidazoles targeting topoisomerase IA and the synergistic composition of bisbenzimidazole with efflux pump inhibitors against pathogenic bacteria” (Jawaharlal Nehru University (JNU), priority 2016, dated 2022).
# Tests used:
# E. coli ATCC25922 = experiment: HN12b in combination with efflux pump inhibitors (CB method, FICI)
# Method: (§1) 96-well microtiter plates containing MIC25 concentrations of the Efflux pump inhibitor (CCCP, PAβN) and HN12b antimicrobial drugs alone and in CB combination were used. The MICs of the individual drugs HN12b, PAβN and CCCP (0.25 to 128 μg/ml) and of the combinations were determined using the broth microdilution technique as recommended by the CLSI. Briefly, the broth microdilution plates were inoculated with each test organism to yield the appropriate density (10^5 CFU/ml) in 100 μl Mueller-Hinton broth (MHB) and incubated for 24 h at 37° C. in ambient air. One well with no antibiotic was used as a positive growth control on each plate. Plates were read for visual turbidity, and results were recorded after 24 h of incubation at 37° C. in ambient air by using a magnifying mirror reader, as turbidity in wells indicated growth of the microorganism. The MIC was determined as the well in the microtiter plate with the lowest drug concentration at which there was no visible growth. […] MICAB was defined as the MIC of drug A in the presence of drug B; MICBA was defined as the MIC of drug B in the presence of drug A.
# (§2) The fractional inhibitory concentration index (FICI) was calculated for each antibiotic in each combination by using the following formula: FICA+FICB=FICI, where FICA equals the MIC of drug A in combination divided by the MIC of drug A alone and FICB equals the MIC of drug B in combination divided by the MIC of drug B alone. The FICIs were interpreted as follows: FICI of ≤0.5 will correspond to synergy; FICI of >0.5 to ≤1 will correspond to additivity; FICI of >1 to ≤4 will correspond to no interaction (indifference), and FICI of >4 will correspond antagonism.
# E. coli KK45 = experiment: as above
# Method: as §1, §2
# A. baumannii (MTCC1920) = experiment: as above
# Method: as §1, §2
# A. baumannii (AB387) = experiment: as above
# Method: as §1, §2
# [1] = system: K. planticola (MTCC 2272); experiment: as above
# Method: as §1, §2
# K. planticola (1164) = experiment: as above
# Method: as §1, §2
# P. aeruginosa (MTCC1688) = experiment: as above
# Method: as §1, §2
# P. aeruginosa (Ps 366) = experiment: as above
# Method: as §1, §2
# Enterococcus sp. (2105) [2] = experiment: as above
# Method: as §1, §2
# Enterococcus sp. (1121) [3] = experiment: as above
# Method: as §1, §2
# [4] = system: Providencia sp. (MTCC 2102); experiment: as above
# Method: as §1, §2
# Providencia sp. (P592) = experiment: as above
# Method: as §1, §2
# [5] = system: Shigella flexineri (MTCC1457); experiment: Susceptibility (MIC50/MIC90), broth microdilution; type: cell-based
# [6] = system: Mycobacterium tuberculosis H37Ra (avirulent); experiment: Susceptibility of Mycobacterium tuberculosis strains (MIC90); type: cell-based
# [7] = system: Mycobacterium tuberculosis H37Rv (virulent); experiment: as above; type: cell-based
# [8] = system: isogenic efflux deleted strains; experiment: Susceptibility of isogenic efflux deleted strains versus wild type; type: cell-based, Escherichia coli; details: in comparison to wild type strains
# M. tuberculosis = experiment: Effect on virulent and avirulent strains of M. tuberculosis; type: cell-based, Mycobacterium tuberculosis
# Enterococcus sp. (2105) [9] = experiment: Susceptibility (MIC50/MIC90), broth microdilution
# Method: (§3) MICs were determined by the broth microdilution method according to CLSI methods (Clinical and Laboratory Standards Institute, 2005). Inoculants were incubated at 37° C. on cation adjusted Mueller Hinton (MH) Broth for 18 to 24 h. Compound were dissolved in media to 10 doubling dilutions from 128 to 0.125 μg/mL. All the bacterial strains were grown in 96 well plate with low evaporation lid (Falcon, Becton Dickinson) in presence of derivatives of benzimidazoles at 0.125, 0.25, 0.5, 1, 2, 4, 8, 16, 32, 64, 128, 256 μg/mL concentrations. […] Plates were read by Tecan Micro-plate Reader at 600 nm.
# Enterococcus sp. (1121) [10] = experiment: Susceptibility (MIC50/MIC90), broth microdilution
# Method: as §3
# Enterococcus sp. (1365) = experiment: Susceptibility (MIC50/MIC90), broth microdilution
# Method: as §3
# Enterococcus sp.(1150) = experiment: Susceptibility (MIC50/MIC90), broth microdilution
# Method: as §3
# Enterococcus sp. (1367) = experiment: Susceptibility (MIC50/MIC90), broth microdilution
# Method: as §3
# Enterococcus sp. (432) = experiment: Susceptibility (MIC50/MIC90), broth microdilution
# Method: as §3
# Staphylococcus sp. (976) = experiment: Susceptibility (MIC50/MIC90), broth microdilution
# Method: as §3
# Staphylococcus sp. (982) = experiment: Susceptibility (MIC50/MIC90), broth microdilution
# Method: as §3
# [11] = system: Staphylococcus sp. (1016); experiment: Susceptibility (MIC50/MIC90), broth microdilution; details: Staphylococcus
# Method: as §3
# Escherichia coli 385 = experiment: Susceptibility (MIC50/MIC90), broth microdilution
# Method: as §3
# Escherichia coli 392 = experiment: Susceptibility (MIC50/MIC90), broth microdilution
# Method: as §3
# [12] = system: Acinetobacter baumannii (MTCC1920); experiment: Susceptibility (MIC50/MIC90), broth microdilution
# Method: as §3
# [13] = system: Acinetobacter baumannii (AB387); experiment: Susceptibility (MIC50/MIC90), broth microdilution
# Method: as §3
# [14] = system: Acinetobacter baumannii (AB312); experiment: Susceptibility (MIC50/MIC90), broth microdilution
# Method: as §3
# [15] = system: Pseudomonas aeruginosa (Ps162); experiment: Susceptibility (MIC50/MIC90), broth microdilution
# Method: as §3
# [16] = system: Pseudomonas aeruginosa (MTCC1688); experiment: Susceptibility (MIC50/MIC90), broth microdilution
# Method: as §3
# [17] = system: Pseudomonas aeruginosa (MTCC 366); experiment: Susceptibility (MIC50/MIC90), broth microdilution; details: MTCC366
# Method: as §3
# [18] = system: Klebsiella planticola (MTCC 2272); experiment: Susceptibility (MIC50/MIC90), broth microdilution; details: MTCC2272
# Method: as §3
# [19] = system: Klebsiella planticola (K1164); experiment: Susceptibility (MIC50/MIC90), broth microdilution
# Method: as §3
# [20] = system: Klebsiella planticola (K235); experiment: Susceptibility (MIC50/MIC90), broth microdilution
# Method: as §3
# [21] = system: Klebsiella planticola (K589); experiment: Susceptibility (MIC50/MIC90), broth microdilution
# Method: as §3
# [22] = system: Salmonella typhimurium (MTCC 1251); experiment: Susceptibility (MIC50/MIC90), broth microdilution; details: Salmonella enterica
# Method: as §3
# [23] = system: Salmonella typhimurium (St412); experiment: Susceptibility (MIC50/MIC90), broth microdilution; details: Salmonella enterica
# Method: as §3
# E. coli K12 = experiment: Susceptibility of E. coli K12 and mutants (MIC90); details: Escherichia coli
# Method: as §3
# E. coli K12 mutant ΔacrA = experiment: Susceptibility of E. coli K12 and mutants (MIC90); details: Escherichia coli
# Method: as §3
# E. coli K12 mutant ΔemrA = experiment: Susceptibility of E. coli K12 and mutants (MIC90); details: Escherichia coli
# Method: as §3
# E. coli K12 mutant ΔtolC = experiment: Susceptibility of E. coli K12 and mutants (MIC90); details: Escherichia coli
# Method: as §3
# E. coli K12 mutant ΔompC = experiment: Susceptibility of E. coli K12 and mutants (MIC90); details: Escherichia coli
# Method: as §3
# E. coli K12 mutant ΔompF = experiment: Susceptibility of E. coli K12 and mutants (MIC90); details: Escherichia coli
# Method: as §3
# [24] = system: E. coli K12 mutant ΔTopIA; experiment: Susceptibility of E. coli K12 and mutants (MIC90); details: Escherichia coli
# Method: as §3
# [25] = system: E. coli K12 mutant ΔTopIB; experiment: Susceptibility of E. coli K12 and mutants (MIC90); details: Escherichia coli
# Method: as §3
# [26] = system: Escherichia coli (ATCC 25922); experiment: Susceptibility (MIC, PAE, MBC), broth microdilution; details: Escherichia coli, ATCC25922, Escherichia coli (ATCC 25922); Table 2
# Method: as §3
compound,measurement,setting,value
"phenylalanine-arginine-β-naphthylamide [PAβN, reference compound]",(BA) MIC90,"E. coli ATCC25922; E. coli ATCC25922, PAβN in presence of HN12b",4.8 µg/mL
same,MIC90,"E. coli ATCC25922; E. coli ATCC25922, single drug alone (A, B, C)",64 µg/mL
same,(BA) MIC90,"E. coli KK45; E. coli KK45, PAβN in presence of HN12b",10 µg/mL
same,(BA) MIC90,"A. baumannii (MTCC1920); A. baumannii (MTCC1920), PAβN in presence of HN12b",59 µg/mL
same,MIC90,"A. baumannii (MTCC1920); A. baumannii (MTCC1920), single drug alone (A, B, C)",>128 µg/mL
same,(BA) MIC90,"A. baumannii (AB387); A. baumannii (AB387), PAβN in presence of HN12b",32 µg/mL
same,MIC90,"A. baumannii (AB387); A. baumannii (AB387), single drug alone (A, B, C)",>128 µg/mL
same,(BA) MIC90,"[1]; K. planticola (MTCC 2272), PAβN in presence of HN12b",62 µg/mL
same,MIC90,"[1]; K. planticola (MTCC 2272), single drug alone (A, B, C)",>128 µg/mL
same,(BA) MIC90,"K. planticola (1164); K. planticola (1164), PAβN in presence of HN12b",62 µg/mL
same,MIC90,"K. planticola (1164); K. planticola (1164), single drug alone (A, B, C)",>128 µg/mL
same,(BA) MIC90,"P. aeruginosa (MTCC1688); P. aeruginosa (MTCC1688), PAβN in presence of HN12b",60 µg/mL
same,MIC90,"P. aeruginosa (MTCC1688); P. aeruginosa (MTCC1688), single drug alone (A, B, C)",123 µg/mL
same,(BA) MIC90,"P. aeruginosa (Ps 366); P. aeruginosa (Ps 366), PAβN in presence of HN12b",55 µg/mL
same,MIC90,"P. aeruginosa (Ps 366); P. aeruginosa (Ps 366), single drug alone (A, B, C)",120.2 µg/mL
same,(BA) MIC90,"Enterococcus sp. (2105) [2]; Enterococcus sp. (2105), PAβN in presence of HN12b",59 µg/mL
same,MIC90,"Enterococcus sp. (2105) [2]; Enterococcus sp. (2105), single drug alone (A, B, C)",>128 µg/mL
same,(BA) MIC90,"Enterococcus sp. (1121) [3]; Enterococcus sp. (1121), PAβN in presence of HN12b",63 µg/mL
same,MIC90,"Enterococcus sp. (1121) [3]; Enterococcus sp. (1121), single drug alone (A, B, C)",>128 µg/mL
same,(BA) MIC90,"[4]; Providencia sp. (MTCC 2102), PAβN in presence of HN12b",58 µg/mL
same,MIC90,"[4]; Providencia sp. (MTCC 2102), single drug alone (A, B, C)",>128 µg/mL
same,(BA) MIC90,"Providencia sp. (P592); Providencia sp. (P592), PAβN in presence of HN12b",38 µg/mL
same,MIC90,"Providencia sp. (P592); Providencia sp. (P592), single drug alone (A, B, C)",>128 µg/mL
"CCCCN1CCN(c2ccc3nc(-c4ccc5[nH]c(-c6ccc(OCC)cc6)nc5c4)[nH]c3c2)CC1 [SP12b, 5-(4-butylpiperazin-1-yl)-2′-(4-ethoxyphenyl)-1H,1′H-2,5′-bibenzo[d]imidazole]",MIC50,[5],1.24 µg/mL
same,MIC90,[5],3.01 µg/mL
same,MIC90,[6],1.78 µg/mL
same,MIC90,[7],9.8 µg/mL
same,sensitisation of efflux deleted strains,[8],more sensitised
same,effect on M. tuberculosis,M. tuberculosis,effective against M. tuberculosis
same,MIC50,Enterococcus sp. (2105) [9],3.7 µg/mL
same,MIC90,Enterococcus sp. (2105) [9],9.08 µg/mL
same,MIC50,Enterococcus sp. (1121) [10],< 0.25 µg/mL
same,MIC90,Enterococcus sp. (1121) [10],0.92 µg/mL
same,MIC50,Enterococcus sp. (1365),< 0.25 µg/mL
same,MIC90,Enterococcus sp. (1365),2 µg/mL
same,MIC50,Enterococcus sp.(1150),< 0.25 µg/mL
same,MIC90,Enterococcus sp.(1150),2 µg/mL
same,MIC50,Enterococcus sp. (1367),< 0.25 µg/mL
same,MIC90,Enterococcus sp. (1367),1 µg/mL
same,MIC50,Enterococcus sp. (432),> 128 µg/mL
same,MIC90,Enterococcus sp. (432),> 128 µg/mL
same,MIC50,Staphylococcus sp. (976),< 0.25 µg/mL
same,MIC90,Staphylococcus sp. (976),0.42 µg/mL
same,MIC50,Staphylococcus sp. (982),> 128 µg/mL
same,MIC90,Staphylococcus sp. (982),> 128 µg/mL
same,MIC50,[11],< 0.25 µg/mL
same,MIC90,[11],0.92 µg/mL
same,MIC50,Escherichia coli 385,15 µg/mL
same,MIC90,Escherichia coli 385,27 µg/mL
same,MIC50,Escherichia coli 392,1.8 µg/mL
same,MIC90,Escherichia coli 392,60 µg/mL
same,MIC50,[12],> 128 µg/mL
same,MIC90,[12],128 µg/mL
same,MIC50,[13],12 µg/mL
same,MIC90,[13],16 µg/mL
same,MIC50,[14],14.6 µg/mL
same,MIC90,[14],28.6 µg/mL
same,MIC50,[15],40.5 µg/mL
same,MIC90,[15],70.3 µg/mL
same,MIC50,[16],> 128 µg/mL
same,MIC90,[16],128 µg/mL
same,MIC50,[17],0.4 µg/mL
same,MIC90,[17],0.8 µg/mL
same,MIC50,[18],> 128 µg/mL
same,MIC90,[18],128 µg/mL
same,MIC50,[19],> 128 µg/mL
same,MIC90,[19],128 µg/mL
same,MIC50,[20],25.9 µg/mL
same,MIC90,[20],59.5 µg/mL
same,MIC50,[21],3.4 µg/mL
same,MIC90,[21],6.8 µg/mL
same,MIC50,[22],< 0.25 µg/mL
same,MIC90,[22],0.25 µg/mL
same,MIC50,[23],< 0.25 µg/mL
same,MIC90,[23],0.25 µg/mL
same,MIC90,E. coli K12,32 µg/mL
same,MIC90,E. coli K12 mutant ΔacrA,3.9 µg/mL
same,MIC90,E. coli K12 mutant ΔemrA,7.4 µg/mL
same,MIC90,E. coli K12 mutant ΔtolC,2.8 µg/mL
same,MIC90,E. coli K12 mutant ΔompC,30.9 µg/mL
same,MIC90,E. coli K12 mutant ΔompF,30.9 µg/mL
same,MIC90,[24],5.7 µg/mL
same,MIC90,[25],17.8 µg/mL
same,MIC50,[26],9.5 µg/mL
same,MIC90,[26],24.9 µg/mL
"N#CC(C#N)=NNc1cccc(Cl)c1 [CCCP, carbonyl cyanide-m-chlorophenyl hydrazone, reference compound]",MIC90,"E. coli ATCC25922; Escherichia coli, ATCC25922",11.8 µg/mL
same,MIC90,"E. coli KK45; Escherichia coli, KK45",12.3 µg/mL
same,MIC90,"A. baumannii (MTCC1920); Acinetobacter baumannii, MTCC1920",30.2 µg/mL
same,MIC90,A. baumannii (AB387); Acinetobacter baumannii,12 µg/mL
same,MIC90,"[1]; Klebsiella planticola, MTCC2272",13.9 µg/mL
same,MIC90,K. planticola (1164); Klebsiella planticola,14.7 µg/mL
same,MIC90,"P. aeruginosa (MTCC1688); Pseudomonas aeruginosa, MTCC1688",128 µg/mL
same,MIC90,P. aeruginosa (Ps 366); Pseudomonas aeruginosa,128 µg/mL
same,MIC90,Enterococcus sp. (2105) [2]; Enterococcus,27.7 µg/mL
same,MIC90,Enterococcus sp. (1121) [3]; Enterococcus,16.2 µg/mL
same,MIC90,"[4]; Providencia, MTCC2102",10.9 µg/mL
same,MIC90,Providencia sp. (P592); Providencia,67.2 µg/mL
